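Briefly, cells in 96-well plates were exposed to five compound concentrations for 48 h, and endpoints were estimated by linear interpolation. At the TGI there is no net growth.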
Key:
Assay in all cases: DTP human tumour cell line panel, 48 h
786-0 renal = tested on: 786-0 renal
A549 NSCLC = tested on: A549 NSCLC
ACHN renal = tested on: ACHN renal
CAKI-1 renal = tested on: CAKI-1 renal
CCRF-CEM leukemia = tested on: CCRF-CEM leukemia
COLO 205 colon = tested on: COLO 205 colon
DLD-1 colon = tested on: DLD-1 colon
DMS 114 small cell lung = tested on: DMS 114 small cell lung
DMS 273 small cell lung = tested on: DMS 273 small cell lung
EKVX NSCLC = tested on: EKVX NSCLC
HCC-2998 colon = tested on: HCC-2998 colon
HCT-15 colon = tested on: HCT-15 colon
HL-60(TB) leukemia = tested on: HL-60(TB) leukemia
HOP-18 NSCLC = tested on: HOP-18 NSCLC
HOP-62 NSCLC = tested on: HOP-62 NSCLC
HT29 colon = tested on: HT29 colon
IGROV1 ovarian = tested on: IGROV1 ovarian
K-562 leukemia = tested on: K-562 leukemia
KM12 colon = tested on: KM12 colon
KM20L2 colon = tested on: KM20L2 colon
LOX IMVI melanoma = tested on: LOX IMVI melanoma
LXFL 529 NSCLC = tested on: LXFL 529 NSCLC
M14 melanoma = tested on: M14 melanoma
M19-MEL melanoma = tested on: M19-MEL melanoma
MALME-3M melanoma = tested on: MALME-3M melanoma
MOLT-4 leukemia = tested on: MOLT-4 leukemia
NCI-H226 lung = tested on: NCI-H226 lung
NCI-H23 lung = tested on: NCI-H23 lung
NCI-H460 lung = tested on: NCI-H460 lung
NCI-H522 lung = tested on: NCI-H522 lung
OVCAR-3 ovarian = tested on: OVCAR-3 ovarian
OVCAR-5 ovarian = tested on: OVCAR-5 ovarian
RPMI-8226 leukemia = tested on: RPMI-8226 leukemia
RXF 393 renal = tested on: RXF 393 renal
SF-268 CNS = tested on: SF-268 CNS
SF-539 CNS = tested on: SF-539 CNS
SK-MEL-2 melanoma = tested on: SK-MEL-2 melanoma
SK-MEL-28 melanoma = tested on: SK-MEL-28 melanoma
SK-OV-3 ovarian = tested on: SK-OV-3 ovarian
SNB-19 CNS = tested on: SNB-19 CNS
SNB-75 CNS = tested on: SNB-75 CNS
SR leukemia = tested on: SR leukemia
SW-620 colon = tested on: SW-620 colon
TK-10 renal = tested on: TK-10 renal
U251 CNS = tested on: U251 CNS
UACC-62 melanoma = tested on: UACC-62 melanoma
UO-31 renal = tested on: UO-31 renal
XF 498 CNS = tested on: XF 498 CNS
A498 renal = tested on: A498 renal
BT-549 breast = tested on: BT-549 breast
DU-145 prostate = tested on: DU-145 prostate
HCT-116 colon = tested on: HCT-116 colon
HOP-92 NSCLC = tested on: HOP-92 NSCLC
HS 578T breast = tested on: HS 578T breast
MCF7 breast = tested on: MCF7 breast
MDA-MB-231 breast = tested on: MDA-MB-231 breast
MDA-MB-435 = tested on: MDA-MB-435
MDA-N = tested on: MDA-N
NCI/ADR-RES ovarian = tested on: NCI/ADR-RES ovarian
OVCAR-4 ovarian = tested on: OVCAR-4 ovarian
OVCAR-8 ovarian = tested on: OVCAR-8 ovarian
PC-3 prostate = tested on: PC-3 prostate
SF-295 CNS = tested on: SF-295 CNS
SK-MEL-5 melanoma = tested on: SK-MEL-5 melanoma
SN12C renal = tested on: SN12C renal
T-47D breast = tested on: T-47D breast
UACC-257 melanoma = tested on: UACC-257 melanoma

Measured: TGI

COC(=O)C1=CCON(c2ccccc2)C1c1ccccc1 (centres undefined)
93.8 µM: NCI-H522 lung
61.7 µM: HL-60(TB) leukemia
not listed: A498 renal | BT-549 breast | DU-145 prostate | HCT-116 colon | HOP-92 NSCLC | HS 578T breast | MCF7 breast | MDA-MB-231 breast | MDA-MB-435 | MDA-N | NCI/ADR-RES ovarian | OVCAR-4 ovarian | OVCAR-8 ovarian | PC-3 prostate | SF-295 CNS | SK-MEL-5 melanoma | SN12C renal | T-47D breast | UACC-257 melanoma
> 100 µM: all other assays above

C[n+]1c(-c2ccc(NC(=O)c3ccc(C(=O)Nc4ccc(-c5cn6ccccc6[n+]5C)cc4)cc3)cc2)cn2ccccc21
> 94.9 µM: A498 renal
not listed: DLD-1 colon | DMS 114 small cell lung | DMS 273 small cell lung | HOP-18 NSCLC | KM20L2 colon | LXFL 529 NSCLC | M19-MEL melanoma | XF 498 CNS
> 100 µM: all other assays above

O=C(OC12CC3CC(CC(C3)C1)C2)c1ccc(NCc2cc(O)ccc2O)cc1
0.816 µM: IGROV1 ovarian
4.92 µM: SW-620 colon
14.8 µM: HOP-62 NSCLC
3.74 µM: SK-MEL-5 melanoma
2.76 µM: NCI/ADR-RES ovarian
5.69 µM: SF-268 CNS
0.825 µM: CAKI-1 renal
2.3 µM: OVCAR-3 ovarian
2.38 µM: K-562 leukemia
4.98 µM: A498 renal
16.7 µM: DU-145 prostate
2.07 µM: HOP-92 NSCLC
5.28 µM: HCT-116 colon
4.11 µM: OVCAR-8 ovarian
1.97 µM: OVCAR-4 ovarian
1.02 µM: RXF 393 renal
1.12 µM: COLO 205 colon
5.18 µM: M14 melanoma
8.54 µM: MCF7 breast
4.41 µM: HS 578T breast
0.451 µM: MOLT-4 leukemia
0.723 µM: CCRF-CEM leukemia
6.56 µM: MDA-N
0.907 µM: SR leukemia
1.71 µM: BT-549 breast
1.96 µM: TK-10 renal
6.2 µM: NCI-H226 lung
3.37 µM: EKVX NSCLC | PC-3 prostate
5.19 µM: KM12 colon
3.75 µM: HCC-2998 colon
9.22 µM: SN12C renal
0.401 µM: RPMI-8226 leukemia
2.68 µM: SNB-75 CNS
5.87 µM: MDA-MB-231 breast
3.8 µM: NCI-H23 lung
0.627 µM: HL-60(TB) leukemia
1.62 µM: SK-MEL-28 melanoma
16.5 µM: A549 NSCLC
1.67 µM: MALME-3M melanoma
4.45 µM: MDA-MB-435
11.7 µM: SNB-19 CNS
2.29 µM: HCT-15 colon
2.86 µM: 786-0 renal
4.59 µM: OVCAR-5 ovarian
7.5 µM: SF-295 CNS
2.35 µM: ACHN renal
2.06 µM: UO-31 renal
1.04 µM: T-47D breast
16.6 µM: NCI-H460 lung
1.31 µM: SF-539 CNS
8.94 µM: LOX IMVI melanoma
2.98 µM: UACC-257 melanoma
9.73 µM: HT29 colon
3.57 µM: SK-MEL-2 melanoma
2.69 µM: U251 CNS
13.2 µM: SK-OV-3 ovarian
3.28 µM: UACC-62 melanoma
0.237 µM: NCI-H522 lung

O=C1N[C@@H]2CCC[C@@H]2[C@@H]1c1ccc(Cl)cc1
not listed: 786-0 renal | ACHN renal | DLD-1 colon | HCC-2998 colon | HOP-18 NSCLC | HOP-62 NSCLC | KM20L2 colon | LXFL 529 NSCLC | MALME-3M melanoma | NCI-H460 lung | OVCAR-5 ovarian | SK-MEL-2 melanoma | SR leukemia | U251 CNS | XF 498 CNS | A498 renal | BT-549 breast | DU-145 prostate | HCT-116 colon | HOP-92 NSCLC | HS 578T breast | MCF7 breast | MDA-MB-231 breast | MDA-MB-435 | MDA-N | NCI/ADR-RES ovarian | OVCAR-4 ovarian | PC-3 prostate | T-47D breast
> 100 µM: all other assays above

— PubChem BioAssay (NCI)
